Measured values as given in publication PMC4623604, “Discovery of Small Molecules that Inhibit the Disordered Protein, p27^Kip1” (Scientific Reports, 2015).

How the values were obtained:
p27-D2-FL/Cdk2/cyclin A = biological target: T1, p27-D2-FL/Cdk2/cyclin A (Homo sapiens, UniProt P46527, C99S/R93C); test: Fluorescence anisotropy displacement of p27-D2-FL from Cdk2/cyclin A; type: binding; conditions: 20 nM p27-D2-FL, 300 nM Cdk2/cyclin A, SJ403 0-3 mM; read-out: IC50, reduction of fluorescence anisotropy of p27-D2-FL (displacement from Cdk2/cyclin A)
T1 construct: p27-D2 (residues 58-105 of human p27); 6xHis (N, cleaved yes); made in house; host or cells: E. coli for p27-D2
Description: We used the Group 2 molecule, SJ403 (Suppl. Table 1b), to test our hypothesis that molecules that bind to p27 can alter its Cdk regulatory function. […] We first used fluorescence anisotropy (FA) to monitor displacement of a single-cysteine (Cys) mutant of p27-D2, with arginine 93 mutated to Cys (R93C) and labeled with Alexa Fluor 488 (p27-D2-FL), from Cdk2/cyclin A by SJ403.
The p27-D2-C99S-R93C mutant was conjugated with Alexa Fluor488-C5-Maleimide (Life Technologies, p27-D2-FL) in buffer containing 20 mM Na phosphate, pH7.3, 20 mM NaCl according to the manufacturer’s protocol. The conjugated protein was further purified by reverse-phase high performance liquid chromatography (HPLC) using a C4 column (Vydac) and 0.1% trifluoroacetic acid-containing water/acetonitrile solvent system. Lyophilized HPLC fractions were resuspended in buffer containing 20 mM Na phosphate, pH 7, 200 mM NaCl, 3.5 mM TCEP. Fluorescence anisotropy measurements were performed at 25 °C on a Horiba Fluorolog 3 spectrofluorometer. Briefly, p27-D2-FL (20 nM) was mixed with Cdk2/Cyclin A (300 nM) and added to the required amount of lyophilized compound (SJ403). All samples have been incubated overnight in the dark at 4 °C prior to fluorescence measurements. Fluorescence anisotropy binding data was analyzed using KaleidaGraph. […]

Cdk2/cyclin A = biological target: T2, Cdk2/cyclin A (Homo sapiens, UniProt P24941); test: Cdk2/cyclin A kinase activity assay (Histone H1 substrate); type: biochemical; conditions: SJ403 alone, 10 μM to 3 mM, 200 pM Cdk2/cyclin A
T2 construct: Full length human Cdk2, active Cdk2 (phosphorylated at threonine 160); truncated human cyclin A (residues 173–432); made in house
Method: Cdk2/Cyclin A (200 pM) was mixed with Histone H1 (15 μM; EMD Millipore), p27-D2 (200 nM) and varied amounts of lyophilized SJ403 and incubated overnight at 4 °C. The effect of the SJ403 compound on Cdk2 activity was determined by performing similar experiments in the absence of p27-D2. Subsequently, ATP (50 μM total concentration, of which 6 μCi γ ^32P-ATP (PerkinElmer, Inc)) was added to each reaction and further incubated for 35 minutes at 30 °C. […] The sample buffer contained 20 mM HEPES pH 7.3, 25 mM sodium β-glycerolphosphate, 15 mM MgCl2, 16 mM EGTA, 0.5 mM Na3VO4 and 10 mM DTT. The reactions were quenched by addition of SDS-gel loading buffer (5 μL) and then analyzed by SDS-PAGE (10 μL). The gels were dried at 70 °C under vacuum and a phosphoimager (GE Healthcare, Piscataway, NJ) was used to quantify the ^32P-Histone H1 bands. IC50 values were determined by curve fitting using KaleidaGraph software. Experiments were performed in triplicate and mean IC50 and standard deviations of the mean values are reported.

p27-KID = biological target: T3, p27-KID (Homo sapiens, UniProt P46527); test: NMR 2D 1H-15N in-phase HSQC titration, binding affinity for p27:small molecule interactions; conditions: sixteen-point titration, 100 μM 15N-p27-KID, inhibitor 0-3 mM
T3 construct: 6xHis (N, cleaved yes); made in house; host or cells: E. coli (pET28a)
Method: 1D and 2D NMR analysis of these molecules led to the identification of 15 additional p27-D2-binding compounds (six with Group 1-like binding features and nine with Group 2-like features; Suppl. Fig. 3b and Suppl. Table 1b).
Sixteen point titrations of representative fragment hits from Group 1 and Group 2 (SJ572710 and SJ572403, respectively) into ^15N-p27-KID (100 μM) were recorded using an adopted “in-phase” 2D ^1H-^15N HISQC with proton decoupling during ^15N chemical shift labeling achieved with a WALTZ16 composite pulse with an amplitude of 7.1 kHz[54][55]. All experiments were collected at a Bruker Avance 800 MHz spectrometer equipped with TCI cryogenic gradient probe. The following molar ratios of ^15N-p27-KID (100 μM) to inhibitor were used: 1:0, 1:0.1, 1:1.5, 1:3, 1:4.5, 1:6, 1:7.5, 1:9, 1:10.5, 1:12, 1:15, 1:18, 1:21, 1:24, 1:27 and 1:30. Each spectrum was recorded with 256 (t1,max = 31.0 ms) and 1024 (t2,max = 106.5 ms) complex points in the ^15N and ^1H dimensions, respectively, with eight transients collected per point. The spectral resolution of the ^1H and ^15N dimensions was 2.4 and 1.7 Hz, respectively. […] The data was processed using the NMRPipe package[56] and analyzed using in-house scripts written in Python using the Scipy computing libraries and Mathematica (Wolfram Research). […]

p27-D2/Cdk2/cyclin A = biological target: T4, p27-D2/Cdk2/cyclin A (Homo sapiens, UniProt P46527); test: Cdk2/cyclin A kinase activity assay in the presence of p27-D2 (restoration of activity); type: biochemical
T4 construct: p27-D2 (residues 58-105 of human p27); 6xHis (N, cleaved yes); made in house; host or cells: E. coli for p27-D2
Method: Figure 6 The small molecule SJ403 displaces p27-D2 from Cdk2/cyclin A and partially restores Cdk2 kinase activity. Analysis of Cdk2 kinase activity [within the Cdk2/cyclin A complex (200 pM) using Histone H1 as the substrate] in the presence of p27-D2 (200 nM) and varied concentrations of SJ403 (from 10 μM to 3 mM) (a) and varied concentrations of SJ403 alone (b). Cdk2 is partially active under the starting conditions in (a) and activity is enhanced through addition of SJ403. In the absence of p27-D2 (b), addition of SJ403 is associated with Cdk2 inhibition. All experiments were performed in triplicate and average values and the standard deviations of the means are shown.
Cdk2/Cyclin A (200 pM) was mixed with Histone H1 (15 μM; EMD Millipore), p27-D2 (200 nM) and varied amounts of lyophilized SJ403 and incubated overnight at 4 °C. The effect of the SJ403 compound on Cdk2 activity was determined by performing similar experiments in the absence of p27-D2. […] The reactions were quenched by addition of SDS-gel loading buffer (5 μL) and then analyzed by SDS-PAGE (10 μL). The gels were dried at 70 °C under vacuum and a phosphoimager (GE Healthcare, Piscataway, NJ) was used to quantify the ^32P-Histone H1 bands. IC50 values were determined by curve fitting using KaleidaGraph software. […]

T4 sequence (P46527 58-105): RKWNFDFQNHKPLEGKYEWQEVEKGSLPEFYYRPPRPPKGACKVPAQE
T1 sequence (P46527 58-105 R93C/C99S): as the sequence (P46527 58-105) above, with R36C, C42S counted along it
T3 sequence (P46527 22-105): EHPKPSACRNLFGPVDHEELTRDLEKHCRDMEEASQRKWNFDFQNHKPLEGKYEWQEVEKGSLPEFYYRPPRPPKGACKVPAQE

CCn1c(C)c(C)n2c3c(=O)n(C)c(=O)n(C)c3nc12 [SJ403]
IC50 (p27-D2-FL/Cdk2/cyclin A): 475 ± 67 µM | effect on Cdk2/cyclin A activity in the absence of p27-D2 (Cdk2/cyclin A): substantially inhibited | Kd (p27-KID): 2200 ± 300 µM | Cdk2 kinase activity after titration of SJ403 (of full kinase activity) (p27-D2/Cdk2/cyclin A; 200 nM p27-D2, 200 pM Cdk2/cyclin A, SJ403 10 μM to 3 mM, start 13%): ~ 20% | increase in Cdk2 kinase activity (p27-D2/Cdk2/cyclin A; from 13% to ~20% of full activity, 200 nM p27-D2): > 50%
